Values of other authors, collected in patent US20030096831A1, “Ocular growth and nicotinic antagonists” (priority 2000, published 2003).
Entries after “also recorded” stand apart in the source; their conditions may differ.

Assays:
[1] = target: human muscle nicotinic receptors (Homo sapiens, UniProt P02708+P07510+Q07001); settings: cited from earlier work
[2] = test system: putative α3β4-containing receptor; settings: cited from earlier work
[3] = test system: nicotinic receptors in preparations of rat thalamus; settings: cited from earlier work
[4] = test system: nicotinic receptors mediating dopamine release from rat synaptosomal preparations; settings: cited from earlier work
accommodation = settings: nicotine intravitreal and subconjunctival; vecuronium bromide applied to corneas; cited from earlier work
development of myopia = settings: chick, tree shrew, monkey and human; cited from earlier work
chick eye refraction = settings: cited from earlier work
[5] = test system: ocular elongation following spectacle-induced hyperopic defocus; settings: applied to chick corneas; cited from earlier work

Chain of human muscle nicotinic receptors (P02708 21-457): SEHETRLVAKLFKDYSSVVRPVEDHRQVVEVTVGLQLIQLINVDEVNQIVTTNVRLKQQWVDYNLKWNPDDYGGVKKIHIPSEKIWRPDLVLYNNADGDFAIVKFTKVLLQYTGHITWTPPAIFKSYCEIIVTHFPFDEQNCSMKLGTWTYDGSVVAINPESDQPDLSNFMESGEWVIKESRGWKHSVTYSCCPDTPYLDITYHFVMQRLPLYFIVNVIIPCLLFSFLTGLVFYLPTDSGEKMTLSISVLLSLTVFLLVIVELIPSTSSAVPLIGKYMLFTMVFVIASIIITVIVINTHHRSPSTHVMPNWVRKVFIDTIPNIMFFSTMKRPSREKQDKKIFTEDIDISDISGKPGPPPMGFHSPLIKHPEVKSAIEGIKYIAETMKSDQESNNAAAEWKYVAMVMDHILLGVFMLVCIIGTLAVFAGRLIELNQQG
Chain of human muscle nicotinic receptors (Q07001 22-517): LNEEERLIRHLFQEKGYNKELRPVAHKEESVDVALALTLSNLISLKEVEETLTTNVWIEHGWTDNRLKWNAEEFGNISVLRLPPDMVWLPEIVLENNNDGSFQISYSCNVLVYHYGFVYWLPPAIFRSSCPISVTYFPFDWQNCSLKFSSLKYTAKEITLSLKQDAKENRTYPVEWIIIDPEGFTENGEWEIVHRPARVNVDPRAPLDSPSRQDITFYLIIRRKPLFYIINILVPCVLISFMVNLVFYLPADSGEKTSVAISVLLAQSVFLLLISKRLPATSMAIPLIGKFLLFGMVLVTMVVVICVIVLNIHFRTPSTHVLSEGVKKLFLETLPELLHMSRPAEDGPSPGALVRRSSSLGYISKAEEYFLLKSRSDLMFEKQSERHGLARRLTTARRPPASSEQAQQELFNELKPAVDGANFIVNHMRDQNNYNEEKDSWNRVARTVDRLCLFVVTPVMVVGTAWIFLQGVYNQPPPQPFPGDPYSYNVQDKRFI
Chain of human muscle nicotinic receptors (P11230 24-501 partner): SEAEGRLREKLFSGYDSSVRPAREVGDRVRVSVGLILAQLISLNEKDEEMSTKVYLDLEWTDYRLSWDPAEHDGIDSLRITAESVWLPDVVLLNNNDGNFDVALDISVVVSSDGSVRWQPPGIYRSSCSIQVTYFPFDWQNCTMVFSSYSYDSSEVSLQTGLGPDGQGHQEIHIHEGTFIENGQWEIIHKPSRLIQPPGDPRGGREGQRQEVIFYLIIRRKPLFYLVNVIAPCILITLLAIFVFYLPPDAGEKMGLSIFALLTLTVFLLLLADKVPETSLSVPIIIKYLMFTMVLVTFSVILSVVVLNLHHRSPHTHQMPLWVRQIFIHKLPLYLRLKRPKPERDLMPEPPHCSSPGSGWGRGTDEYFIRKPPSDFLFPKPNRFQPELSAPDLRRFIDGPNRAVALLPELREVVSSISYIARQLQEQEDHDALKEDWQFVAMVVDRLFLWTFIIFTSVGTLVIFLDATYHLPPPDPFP
Chain of human muscle nicotinic receptors (P07510 23-517): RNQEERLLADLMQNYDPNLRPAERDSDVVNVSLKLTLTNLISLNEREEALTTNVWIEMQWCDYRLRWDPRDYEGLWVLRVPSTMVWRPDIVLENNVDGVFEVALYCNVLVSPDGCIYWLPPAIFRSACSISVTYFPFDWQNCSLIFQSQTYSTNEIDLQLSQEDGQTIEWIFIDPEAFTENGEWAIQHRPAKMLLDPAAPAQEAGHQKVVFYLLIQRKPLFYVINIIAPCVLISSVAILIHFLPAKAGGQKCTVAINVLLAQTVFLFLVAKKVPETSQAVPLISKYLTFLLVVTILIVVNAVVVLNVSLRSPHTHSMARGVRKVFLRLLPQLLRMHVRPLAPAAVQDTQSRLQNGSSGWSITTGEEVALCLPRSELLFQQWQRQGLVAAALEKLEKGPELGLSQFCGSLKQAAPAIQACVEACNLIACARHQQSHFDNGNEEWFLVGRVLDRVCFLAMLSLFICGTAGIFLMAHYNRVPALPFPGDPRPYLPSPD

c1cncc(C2CC3CCN2CC3)c1 (racemic) [RJR-2429, (+/−)-2-(-3-pyridinyl)-1-azabicyclo [2.2.2]octane]
action at human muscle nicotinic receptors [1]: selectively activates
action at putative α3β4-containing receptor [2]: selectively activates
action at nicotinic receptors in preparations of rat thalamus [3]: inhibits
action at nicotinic receptors mediating dopamine release [4]: partial agonist

CN1[C@@H]2CC[C@H]1C[C@@H](OC(=O)C(CO)c1ccccc1)C2 (some centres unmarked) [atropine]
effect on accommodation in chicks (accommodation): fails to paralyze accommodation
development of myopia (development of myopia): retards the development of myopia; also recorded: blocks myopia in the chick

CN1CCCC1c1cccnc1 (centres unmarked) [nicotine]
effect on accommodation in chicks (accommodation): induce accommodation
myopic refractive shift compared to non-treated eyes (chick eye refraction; daily subconjunctival injections, not seen for subconjunctival saline): 0.75 diopters
myopic shift in refraction compared to contralateral non-injected eyes (chick eye refraction; twice daily intravitreal injections for two weeks, intravitreal saline had the same effect): ~2 diopter

CC(=O)O[C@H]1C[C@@H]2CC[C@@H]3[C@H](CC[C@@]4(C)[C@H]3C[C@H]([N+]3(C)CCCCC3)[C@@H]4OC(C)=O)[C@@]2(C)C[C@@H]1N1CCCCC1 [vecuronium bromide]
effect on accommodation in chicks (accommodation): paralyzed accommodation
ocular elongation following spectacle-induced hyperopic defocus [5]: failed to influence
